These molecules were tested on A549 human lung epithelium cell line (assay: RANTES production in response to TNF-α from A549 cells). Conditions: Homo sapiens, A549, A549 cells, 100 ng/ml TNF-α, read-out: Cellular activity grade (A549) (Cellular IC50).
Type: cell-based
Procedure, shortened: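 RANTES released into supernatant was measured by DELFIA-type sandwich immunoassay, Eu-labelled detection antibody, 340 nm excitation/615 nm emission, recombinant RANTES standard. Beforehand, cells seeded at 4×10^4/well received test compound (1% DMSO) for 1 h at 37 °C, followed by 24 h TNF-α (100 ng/ml) stimulation.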
Molecule `COCCNC(=O)c1cc2c(C3CCCNC3)cc(-c3c(O)cccc3OCC3CC3)nc2[nH]c1=O` (centres unmarked) [Example 31-07] has an IC50 of less than 1 µM.
`N#Cc1c(NCCNC(=O)c2ccccc2)cc(-c2c(O)cccc2OCC2CC2)nc1N` [Example 34-16] showed an IC50 of less than 1 µM.
`O=C(NC(c1ccccc1)c1ccccc1)c1cc2c(C3CCCNC3)cc(-c3c(O)cccc3OCC3CC3)nc2[nH]c1=O` (centres unmarked) [Example 31-13] was tested, and the IC50 was less than 1 µM.
`C[C@H](NC(=O)c1cc2c(C3CCCNC3)cc(-c3c(O)cccc3OCC3CC3)nc2[nH]c1=O)c1ccccc1` (some centres unmarked) [Example 31-14] showed an IC50 of less than 1 µM.
Work on `N#Cc1c(NC2CCNCC2)cc(-c2ccccc2O)nc1N` [Example 34-07] yielded an IC50 of 1 to 10 µM.
`CCCOc1cccc(O)c1-c1cc(C2CCNCC2)c2c(n1)NC(=O)CC2` [Example 27-05] showed an IC50 of less than 1 µM.
`CCCOc1cccc(O)c1-c1cc(C2CCCNC2)c2c(n1)NC(=O)C(C(=O)OCC)C2` (centres unmarked) [Example 26-06] was tested, and the IC50 was less than 1 µM.
Molecule `O=C(NCCO)c1cc2c(C3CCCNC3)cc(-c3c(O)cccc3OCC3CC3)nc2[nH]c1=O` (centres unmarked) [Example 31-20] has an IC50 of 1 to 10 µM.
Molecule `O=C(NCC1CCCCC1)c1cc2c(C3CCCNC3)cc(-c3c(O)cccc3OCC3CC3)nc2[nH]c1=O` (centres unmarked) [Example 31-19] has an IC50 greater than 10 µM.
`CCOC(=O)C1Cc2c(C3CCCNC3)cc(-c3c(O)cccc3OCC3CC3)nc2NC1=O` (centres unmarked) [Example 26-03] was tested, and the IC50 was less than 1 µM.
With `CN(C)C(=O)c1cc2c(C3CCCNC3)cc(-c3c(O)cccc3OCC3CC3)nc2[nH]c1=O` (centres unmarked) [Example 31-04] the IC50 was 1 to 10 µM.
For `N#Cc1c(N2CCNCC2)cc(-c2ccccc2O)nc1N` [Example 34-09], the IC50 was 1 to 10 µM.
`N#Cc1c(NCCNC(=O)Nc2ccccc2)cc(-c2c(O)cccc2OCC2CC2)nc1N` [Example 34-18] showed an IC50 of less than 1 µM.
With `O=C(NC1CC1)c1cc2c(C3CCCNC3)cc(-c3c(O)cccc3OCC3CC3)nc2[nH]c1=O` (centres unmarked) [Example 31-21] the IC50 was less than 1 µM.
`O=C1CCc2c(C3CCNCC3)cc(-c3c(O)cccc3OCC3CC3)nc2N1` [Example 27-04] gave an IC50 of less than 1 µM.
`O=C(NCC(F)(F)F)c1cc2c(C3CCCNC3)cc(-c3c(O)cccc3OCC3CC3)nc2[nH]c1=O` (centres unmarked) [Example 31-27] showed an IC50 of less than 1 µM.
`O=C(c1cc2c(C3CCCNC3)cc(-c3c(O)cccc3OCC3CC3)nc2[nH]c1=O)N1CCNCC1` (centres unmarked) [Example 31-09] was tested, and the IC50 was greater than 10 µM.
With `CCOC(=O)C1Cc2c(C3CCNCC3)cc(-c3c(O)cccc3OCC3CC3)nc2NC1=O` (centres unmarked) [Example 26-04] the IC50 was less than 1 µM.
`NC(=O)C1Cc2c(C3CCCNC3)cc(-c3c(O)cccc3OCC3CC3)nc2NC1=O` (centres unmarked) [Example 26-05] showed an IC50 of less than 1 µM.
For `O=C(NC1CCCC1)c1cc2c(C3CCCNC3)cc(-c3c(O)cccc3OCC3CC3)nc2[nH]c1=O` (centres unmarked) [Example 31-23], the IC50 was less than 1 µM.
For `N#Cc1c(NCCN)cc(-c2ccccc2O)nc1N` [Example 34-10], the IC50 was less than 1 µM.
For `CCC(CC)NC(=O)c1cc2c(C3CCCNC3)cc(-c3c(O)cccc3OCC3CC3)nc2[nH]c1=O` (centres unmarked) [Example 31-25], the IC50 was less than 1 µM.
Work on `O=C(NC1Cc2ccccc2C1)c1cc2c(C3CCCNC3)cc(-c3c(O)cccc3OCC3CC3)nc2[nH]c1=O` (centres unmarked) [Example 31-12] yielded an IC50 of less than 1 µM.
For `N#Cc1cc2c(C3CCCNC3)cc(-c3c(O)cccc3OCC3CC3)nc2[nH]c1=O` (centres unmarked) [Example 25-06], the IC50 was less than 1 µM.
For `N#Cc1c(N2CCCNCC2)cc(-c2ccccc2O)nc1N` [Example 34-08], the IC50 was 1 to 10 µM.
With `CNCCNc1cc(-c2ccccc2O)nc(N)c1C#N` [Example 34-12] the IC50 was less than 1 µM.
`NC(=O)c1cc2c(C3CCCNC3)cc(-c3c(O)cccc3OCC3CC3)nc2[nH]c1=O` (centres unmarked) [Example 25-08] showed an IC50 of less than 1 µM.
`O=C(c1cc2c(C3CCCNC3)cc(-c3c(O)cccc3OCC3CC3)nc2[nH]c1=O)N1CCOCC1` (centres unmarked) [Example 31-08] showed an IC50 of 1 to 10 µM.
`CN(C)CCNC(=O)c1cc2c(C3CCCNC3)cc(-c3c(O)cccc3OCC3CC3)nc2[nH]c1=O` (centres unmarked) [Example 31-11] gave an IC50 of less than 1 µM.
`O=C(NCCc1ccccc1)c1cc2c(C3CCCNC3)cc(-c3c(O)cccc3OCC3CC3)nc2[nH]c1=O` (centres unmarked) [Example 31-17] was tested, and the IC50 was 1 to 10 µM.
`C[C@H](NC(=O)c1cc2c(C3CCCNC3)cc(-c3c(O)cccc3OCC3CC3)nc2[nH]c1=O)C(=O)O` (some centres unmarked) [Example 31-16] was tested, and the IC50 was 1 to 10 µM.
Work on `O=C(NC1CCCCCC1)c1cc2c(C3CCCNC3)cc(-c3c(O)cccc3OCC3CC3)nc2[nH]c1=O` (centres unmarked) [Example 31-24] yielded an IC50 of less than 1 µM.
`O=C(NC1CCCCC1)c1cc2c(C3CCCNC3)cc(-c3c(O)cccc3OCC3CC3)nc2[nH]c1=O` (centres unmarked) [Example 31-18] was tested, and the IC50 was less than 1 µM.
Work on `O=C(c1cc2c(C3CCCNC3)cc(-c3c(O)cccc3OCC3CC3)nc2[nH]c1=O)N1CCCC1` (centres unmarked) [Example 31-05] yielded an IC50 of 1 to 10 µM.
With `N#Cc1c(NCCNCc2ccccc2)cc(-c2ccccc2O)nc1N` [Example 34-13] the IC50 was less than 1 µM.
`N#Cc1c(N2CCCC(C(N)=O)C2)cc(-c2ccccc2O)nc1N` (centres unmarked) [Example 34-06] showed an IC50 greater than 10 µM.
Molecule `C[C@@H](NC(=O)c1cc2c(C3CCCNC3)cc(-c3c(O)cccc3OCC3CC3)nc2[nH]c1=O)c1ccccc1` (some centres unmarked) [Example 31-15] has an IC50 of less than 1 µM.
`N#Cc1c(NCCNCc2ccccc2)cc(-c2c(O)cccc2OCC2CC2)nc1N` [Example 34-15] showed an IC50 of less than 1 µM.
For `O=c1[nH]c2nc(-c3c(O)cccc3OCC3CC3)cc(C3CCCNC3)c2cc1S(=O)(=O)c1ccccc1` (centres unmarked) [Example 25-07], the IC50 was less than 1 µM.
`CNC(=O)c1cc2c(C3CCCNC3)cc(-c3c(O)cccc3OCC3CC3)nc2[nH]c1=O` (centres unmarked) [Example 31-03] showed an IC50 of less than 1 µM.
With `O=C(NC1CCC1)c1cc2c(C3CCCNC3)cc(-c3c(O)cccc3OCC3CC3)nc2[nH]c1=O` (centres unmarked) [Example 31-22] the IC50 was less than 1 µM.
With `O=c1[nH]c2nc(-c3c(O)cccc3OCC3CC3)cc(C3CCCNC3)c2cc1[N+](=O)[O-]` (centres unmarked) [Example 25-05] the IC50 was 1 to 10 µM.
`CCCOc1cccc(O)c1-c1cc(C2CCCNC2)c2c(n1)NC(=O)CC2` (centres unmarked) [Example 27-02] was tested, and the IC50 was less than 1 µM.
`CC(=O)NCCNc1cc(-c2c(O)cccc2OCC2CC2)nc(N)c1C#N` [Example 34-19] gave an IC50 of less than 1 µM.
Work on `O=C1CCc2c(C3CCCNC3)cc(-c3c(O)cccc3OCC3CC3)nc2N1` (centres unmarked) [Example 27-03, 7-[2-(cyclopropylmethoxy)-6-hydroxyphenyl]-5-(3-piperidinyl)-3,4-dihydro-1,8-naphthyridin-2(1H)-one] yielded an IC50 of less than 1 µM.
In the case of `N#Cc1c(NCCNS(=O)(=O)c2ccccc2)cc(-c2c(O)cccc2OCC2CC2)nc1N` [Example 34-17], the IC50 is reported as greater than 10 µM.
For `O=C(NCc1ccccc1)c1cc2c(C3CCCNC3)cc(-c3c(O)cccc3OCC3CC3)nc2[nH]c1=O` (centres unmarked) [Example 31-06], the IC50 was less than 1 µM.
Work on `N#Cc1c(NCCCN)cc(-c2ccccc2O)nc1N` [Example 34-11] yielded an IC50 of 1 to 10 µM.
`CCCC(CCC)NC(=O)c1cc2c(C3CCCNC3)cc(-c3c(O)cccc3OCC3CC3)nc2[nH]c1=O` (centres unmarked) [Example 31-26] was tested, and the IC50 was less than 1 µM.
`CC(C)NC(=O)c1cc2c(C3CCCNC3)cc(-c3c(O)cccc3OCC3CC3)nc2[nH]c1=O` (centres unmarked) [Example 31-10] gave an IC50 of less than 1 µM.

— patent US6984649B1, “Pyridine derivatives” (Bayer Aktiengesellschaft, priority 2000, dated 2006)
